Test results as given in US20240209353A1, “NADK2 INHIBITION IN CANCER AND FIBROTIC DISORDERS” (Memorial Sloan-Kettering Cancer Center, priority 2021, published 2024).
Several values for one entry are separate records, joined by “and”; a condition that tells them apart may be missing. Equal values may be shown once.

System: DLD1-OMP25HA cells
Assay: LC-MS metabolomic profiling, whole cell samples
Type: cell-based, human
Details: DLD1-OMP25HA sgCtrl + Piericidin 5 μM 2 hours, rep01-rep03
Procedure: Rapid immunopurification of mitochondria was performed following the published methodology (4). In brief, cells with control or NADK2 knockout were engineered to express the HA-tagged OMP25 protein (Addgene, 83356); or in the case of FIG. 5E, parental DLD1 cells were engineered to express the HA-tagged OMP25 protein or the Myc-tagged OMP25 protein (Addgene, 83355), 30 million cells were washed and dounce homogenized in KPBS (136 mM KCl and 10 mM KH2PO4, pH 7.25). The homogenate was then cleared by centrifugation and the supernatant was applied to anti-HA beads (Thermo Fisher, 88837) and incubated with rotation for 3.5 min. The resultant beads were washed with KPBS and were eluted for different downstream analyses: Triton X-100 lysis buffer (50 mM Tris-HCl, pH 7.4, 150 mM NaCl, 1 mM EDTA, 1% (vol/vol) Triton X-100, and protease inhibitors) was used to elute mitochondria for Western blot analysis; 80:20 methanol:water containing 1.5 μM ^13C^15N labeled amino acids (Cambridge Isotope Laboratories, MSK-A2-1.2) was used to elute mitochondria for liquid chromatography-mass spectrometry (LC-MS) analysis; 80:20 methanol:water was used to elute mitochondria for NAD(H) and NADP(H) measurements; glutathione lysis buffer (see below) was used to elute mitochondria for GSH measurements.
For negative ionization mode liquid chromatography separation was achieved on an iHILIC-(P) Classic column (100 mm×2.1 mm, 5 μm particle size, HILICON). Mobile phase A was 10 mM ammonium bicarbonate in 10:90 acetonitrile:water with 5 μM medronic acid, pH 9.4 and mobile phase B was 10 mM ammonium bicarbonate in 90:10 acetonitrile:water with 5 μM medronic acid, pH 9.4). The gradient was 0 min, 95% B; 15 min, 50% B; 18 min, 50% B; 19 min, 95% B; 19.10 min, 95% B; 25.5 min, 95% B; 2 mins posttime. Other LC parameters were: flow rate: 200 μL/min; column temperature: 40° C., and injection volume was 2 μL. MS parameters were: gas temp: 300° C.; gas flow: 10 L/min; nebulizer pressure: 40 psig; sheath gas temp: 350° C.; sheath gas flow: 12 L/min; VCap: 3,000 V; fragmentor: 125 V. Data were acquired from m/z 50-1700 with active reference masses correction (m/z: 121.05087 and 922.00980 (positive mode) or m/z: 119.03632 and 980.01638 (negative mode). Peak identification and integration were done based on in-house exact mass and retention time library built from commercial standards. Data analysis and natural isotope abundance correction were performed using MassHunter Profinder software v10.0 (Agilent Technologies).
For metabolomic profiling of the Mito-IP samples, dried extracts were resuspended in 30 μL of 60:40 acetonitrile:water and an additional 7.5 μL of 100% methanol added to prevent phase separation. Samples were vortexed, incubated on ice for 20 min, and clarified by centrifugation at 20,000 g for 20 min at 4° C. LC-MS analysis was using the iHILIC-(P) Classic negative method described with 6545 Q-TOF mass spectrometer (Agilent Technologies). Whole cell extracts were analyzed in parallel and data analysis was performed using MassHunter Profinder v10.0 software (Agilent Technologies). Metabolite identifications reported were based on either (a) exact mass and retention times matched to authentic standards (denoted as RT in Tables 1A-1G) or (b) exact mass and MS2 spectra match using SIRIUS software (denoted as MS2 in Tables 1A-1G) (https://bio.informatik.uni-jena.de/software/sirius/). Metabolites were considered to be mitochondrial if the average peak area measured in anti-HA Mito-IPs from HA-tagged OMP25 cells was at least 1.5-fold more than in anti-HA Mito-IPs from the control cell expressing Myc-tagged OMP25 (scc Tables 1A-1G; FC>1.5 for [OMP25HA sgCtrl MitoIP vs. OMP25Myc MitoIP]).

C/C=C(\C)[C@H](O)[C@H](C)/C=C(C)/C=C/C/C(C)=C/Cc1nc(OC)c(OC)c(O)c1C [piericidin] was tested, and the 2-aminoadipate was 146679 and 129247 and 159230, the 2-hydroxyglutarate was 3675897 and 3670344 and 3586833 and the 3-methyl-2-oxovalerate was 3696272 and 2980891 and 4249362. For the same compound, the 4-acetylbutyrate was 10363291 and 8533694 and 12130178, the 4-hydroxyproline was 522424 and 441928 and 551397 and the “5-methylthioadenosine (MTA)” value was 257749 and 400467 and 367942. The 5-oxoproline was 16393034 and 14068076 and 17132083, the 6-phosphogluconate was 65481 and 57701 and 58966 and the “N6-(delta-isopentenyl)-adenine” value was 293077 and 229998 and 281738. The N-acetyl-beta-alanine was 1022765 and 956905 and 1036571, the N-acetylalanine was 238161 and 214277 and 230562 and the “N-acetylaspartate (NAA)” value was 12095956 and 11050203 and 12351863. The “N-acetylglucosamine 6-phosphate” value was 428986 and 380372 and 454385, the N-acetylglutamate was 987898 and 1549149 and 871723 and the N-acetylglycine was 43846 and 40358 and 41154. The N-acetylmethionine was 462515 and 426811 and 428397, the N-acetylserine was 5896001 and 5058414 and 6358391 and the N-acetyltaurine was 1110210 and 1084752 and 1148548. For the same compound, the N-acetylthreonine was 1380430 and 1226851 and 1295989, the UDP-N-acetylglucosamine was 4639411 and 4238311 and 4998970 and the UDP-glucuronate was 1027925 and 858275 and 1243921. The aconitate was 346582 and 453318 and 406006, the adenine was 481304 and 768689 and 708555 and the “adenosine 5′-diphosphate (ADP)” value was 1129524 and 1189412 and 1083190. For the same compound, the “adenosine 5′-monophosphate (AMP)” value was 646021 and 715531 and 648428, the “adenosine 5′-triphosphate (ATP)” value was 2352445 and 2990040 and 2388618 and the alanine was 1663860 and 1344230 and 1765231. The alanylhistidine was 22199 and 41823 and 30446, the allantoin was 3703951 and 3225148 and 4031072 and the arginine was 1086834 and 998509 and 1348136. For the same compound, the asparagine was 2068551 and 1580346 and 2240202, the aspartate was 1717174 and 1947525 and 1819639 and the beta-glycerophosphoric acid was 850446 and 705915 and 880253. For the same compound, the betaine was 161649 and 112014 and 159770, the caproate was 114886 and 109032 and 115791 and the carbamoyl aspartate was 3763133 and 3469742 and 3815379. The carnitine was 43283 and 41086 and 45131, the citrate was 9028971 and 10970194 and 9594217 and the creatine was 549841 and 451406 and 565679. The creatine phosphate was 394087 and 351223 and 410441, the creatinine was 277361 and 240499 and 323168 and the “cytidine 5′-triphosphate (CTP)” value was 81066 and 75474 and 92586. The “dihydroxyacetone phosphate (DHAP)” value was 1214605 and 1228567 and 1670800, the dodecanoate was 303807 and 282352 and 360172 and the “flavin adenine dinucleotide (FAD)” value was 115513 and 108031 and 137050. For the same compound, the folate was 99228 and 128177 and 134416, the formylpyruvate was 1414077 and 902945 and 1059691 and the “fructose 1,6-biphosphate” value was 1321982 and 1216851 and 1680580. The “fructose 6′-phosphate” value was 57127 and 49316 and 50145, the fumarate was 357661 and 412548 and 377283 and the galactitol was 918739 and 708477 and 1199966. For the same compound, the galactonic acid was 2240293 and 1677985 and 2390572, the “gamma-aminobutyrate (GABA)” value was 3496195 and 3622488 and 3524195 and the glucosamine was 164826 and 119694 and 178113. For the same compound, the “glucose 6′-phosphate” value was 755029 and 621609 and 531377, the glutamate was 126622339 and 129663305 and 129294077 and the glutamine was 58464656 and 69652329 and 62470821. For the same compound, the “glyceraldehyde 3-phosphate” value was 3045295 and 3098709 and 4229751, the “glycerophosphorylcholine (GPC)” value was 210330 and 183098 and 225230 and the glycine was 146868 and 137614 and 144892. The glycylaspartate was 205091 and 201360 and 226481, the “guanosine 5′-diphosphate (GDP)” value was 69660 and 69853 and 38046 and the “guanosine 5′-diphosphoglucose” value was 33192 and 34147 and 38993. For the same compound, the “guanosine 5′-monophosphate (GMP)” value was 44633 and 51573 and 51777, the “guanosine 5′-triphosphate (GTP)” value was 171526 and 214847 and 133658 and the histidine was 15027640 and 12343272 and 17476456. For the same compound, the hydroxyphenyllactate was 1478092 and 1166698 and 1355443, the “inosine 5′-monophosphate (IMP)” value was 22897 and 17939 and 22222 and the isoleucine was 4513788 and 3853543 and 5003963. For the same compound, the lactate was 105521436 and 97172905 and 114401680, the leucine was 7669096 and 6479727 and 8479119 and the lysine was 195097 and 149255 and 233140. For the same compound, the malate was 12653099 and 10480180 and 12542946, the methionine was 1041135 and 894784 and 1078995 and the “methylthioribulose 1-phosphate” value was 21298086 and 18010540 and 22620900. The nicotinamide was 39081 and 33023 and 41574, the “nicotinamide adenine dinucleotide (NAD+)” value was 7875605 and 8688241 and 9053967 and the “nicotinamide adenine dinucleotide phosphate (NADP+)” value was 15380 and 19291 and 12614. For the same compound, the “nicotinamide adenine dinucleotide, reduced (NADH)” value was 455322 and 465048 and 452884, the oleate was 460639 and 248285 and 328228 and the palmitate was 20015231 and 20994808 and 24605738. The pantothenate was 8937050 and 7961239 and 9124782, the pentadecanoic acid was 302982 and 182808 and 229103 and the phenylacetate was 87967 and 87598 and 109383. The phenylacetylglycine was 1781914 and 1641866 and 2033368, the phenylalanine was 6841254 and 5972052 and 7346184 and the phosphocholine was 1734241 and 1590770 and 1746457. For the same compound, the “phosphoenolpyruvate (PEP)” value was 217348 and 206448 and 247608, the proline was 4018244 and 3303744 and 4136919 and the “ribose 5′-phosphate” value was 30487 and 39389 and 44236. The serine was 1972729 and 1697021 and 2115421, the serinylaspartate was 80143 and 82279 and 87822 and the sn-glycero-3-phosphoethanolamine was 3947102 and 4703023 and 3861169. For the same compound, the stearate was 10555350 and 11041062 and 14072247, the succinate was 468012 and 552589 and 622074 and the taurine was 79062900 and 54111662 and 81152564. For the same compound, the threonate was 4663562 and 3938483 and 4644285, the threonine was 13508533 and 12463455 and 14159756 and the “thymidine 5′-diphospho-alpha-D-glucose” value was 14725 and 13909 and 14870. The thymine was 24681 and 21055 and 27340, the tryptophan was 747292 and 595893 and 756562 and the tyrosine was 3847092 and 3576189 and 3918008. For the same compound, the “uridine 5′-diphosphate (UDP)” value was 175584 and 155688 and 210038, the “uridine 5′-monophosphate (UMP)” value was 631970 and 347896 and 460624 and the “uridine 5′-triphosphate (UTP)” value was 3135652 and 2793092 and 3584193. For the same compound, the valine was 1041408 and 903609 and 1081229.
